The text below walks through data of PubChem BioAssay (NCI).

Assay in all cases: NCI tumour cell line growth inhibition, 48 h
In experiment [1] the test system is TK-10 renal.
Experiment [2] concerns COLO 205 colon.
The subject of experiment [3] is SK-MEL-2 melanoma.
Experiment [4] has as its system NCI-H460 lung.
The test system of experiment [5] is HOP-92 NSCLC.
For experiment [6], the system named is SN12C renal.
Experiment [7] has as its system MALME-3M melanoma.
Experiment [8] deals with IGROV1 ovarian.
Experiment [9] has as its system OVCAR-8 ovarian.
For experiment [10], the system named is CAKI-1 renal.

SMILES strings stand for the structures.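 In this assay, cells in 96-well plates receive the compound at five concentrations for 48 hours. Endpoints are linearly interpolated between the surrounding concentrations. GI50 = concentration required for 50% inhibition of growth. TGI: concentration producing complete growth inhibition.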

For `CCN1CCCCC(=N\O)/C(=N/O)CCCC1`, the TGI in experiment [1], in experiment [2], in [3], in experiment [4], in experiment [5] and in experiment [6] was greater than 100 µM throughout. Further, the TGI in experiment [7], in [8], in experiment [9] and in experiment [10] was greater than 100 µM throughout.

As for `CN(Cc1ccccc1)C1(N(C)Cc2ccccc2)CC1`, the TGI in experiment [1], in [2], in experiment [3], in [4], in experiment [5] and in [6] was greater than 100 µM each time. Besides, the TGI in experiment [7], in experiment [8], in experiment [9] and in experiment [10] was greater than 100 µM throughout.

`C1C[OH+]CC[OH+]CC[OH+]CC[OH+]CC[OH+]CC[OH+]1.[Cl-].[Ta+5]`: the GI50 in experiment [1], in experiment [2], in [3], in [4], in experiment [5] and in [6] was greater than 100 µM throughout. The GI50 in experiment [7], in [8], in experiment [9] and in experiment [10] was greater than 100 µM throughout. Also, the TGI in experiment [1], in experiment [2], in experiment [3], in experiment [4], in experiment [5] and in [6] was greater than 100 µM throughout. Moreover, the TGI in [7], in [8], in experiment [9] and in experiment [10] was greater than 100 µM throughout.

Regarding `CCOC(=O)c1cnc2c(cnn2CC)c1NN=C(C)C`, the GI50 in experiment [1] is 27.1 µM; in experiment [2] it was 58.7 µM; in experiment [3], 53.5 µM; in [4] it was 57.5 µM; in experiment [5], 25.3 µM; in experiment [6] it was 38.2 µM. The GI50 was greater than 100 µM in experiment [7], 38.3 µM in [8], 55.1 µM in [9] and 22.9 µM in [10]. Moreover, the TGI in [1], in [2], in experiment [3], in [4], in experiment [5] and in experiment [6] was greater than 100 µM each time. Also, the TGI in [7], in experiment [8], in [9] and in experiment [10] was greater than 100 µM each time.

For the compound `C#CC#CC#CC#CC#CC#CC#CC#CCC1OC[C@H](COC(=O)O[C@@H](C(=O)O[C@H]2C[C@@]3(O)[C@@H](OC(=O)c4ccccc4)[C@@H]4[C@]5(OC(C)=O)CO[C@@H]5C[C@H](O)[C@@]4(C)C(=O)[C@H](OC(C)=O)C(=C2C)C3(C)C)[C@@H](NC(=O)c2ccccc2)c2ccccc2)O1` (stereo partly drawn), the GI50 in [1] was greater than 21.5 µM; in experiment [2], 0.202 µM; in [3], 1.56 µM; in experiment [4] it was 0.123 µM; in experiment [5] it was greater than 18.5 µM; in experiment [6] it was 1.34 µM. Also, the GI50 in [7] is 1.16 µM; in [8], 0.424 µM; in experiment [9], 0.561 µM; in experiment [10], 1.4 µM. Further, the TGI in [1], in experiment [2], in experiment [3], in experiment [4], in experiment [5] and in experiment [6] was greater than 33.3 µM throughout. Moreover, the TGI in [7], in [8], in experiment [9] and in experiment [10] was greater than 33.3 µM throughout.

As to `CCOC(=O)C1(C(=O)OCC)CC=C(C)CC12C(=O)Nc1ccccc12` (stereo not drawn), the TGI in experiment [1], in experiment [2], in experiment [3], in experiment [4], in [5] and in experiment [6] was greater than 100 µM each time. For the same compound, the TGI in [7], in [8], in [9] and in [10] was greater than 100 µM in each case.

As to `Cc1[nH]nc(C(=O)Nc2n[nH]c3ccccc23)c1[N+](=O)[O-]`, the GI50 in experiment [1] is greater than 100 µM; in experiment [2] it was 63.4 µM; in experiment [3] it was greater than 100 µM; in [4], greater than 85.1 µM; in experiment [5] it was greater than 100 µM; in experiment [6], greater than 100 µM. Further, the GI50 in experiment [7], in experiment [8], in [9] and in experiment [10] was greater than 100 µM in each case. The TGI in experiment [1], in [2], in experiment [3], in experiment [4], in experiment [5] and in experiment [6] was greater than 100 µM throughout. Moreover, the TGI in [7], in [8], in experiment [9] and in experiment [10] was greater than 100 µM each time.

Take `O=C(CC(=O)c1ccccc1NC1=Cc2ccccc2C(=O)C1=O)C(=O)NC1=C(Cl)C(=O)c2ccccc2C1=O`: the TGI in experiment [1] is 43.6 µM; in [2] it was 31 µM; in experiment [3] it was 6.6 µM; in experiment [4] it was 12.1 µM; in experiment [5] it was 17.9 µM; in [6] it was 3.67 µM. The TGI in [7] worked out at 2.49 µM; in experiment [8], 17.6 µM; in experiment [9], 12.2 µM; in experiment [10], 24.1 µM.

For `COC1(OC)c2ccccc2C2(O)c3ccccc3C(=O)C12` (stereo not drawn), the TGI is greater than 100 µM in experiment [1]; 27 µM in [2]; greater than 100 µM in [3]; greater than 100 µM in [4]; greater than 100 µM in [5]; greater than 100 µM in [6]. Besides, the TGI was greater than 100 µM in experiment [7], 67 µM in experiment [8] and greater than 100 µM in experiment [9].

Consider `CCc1cccc(C(C)CC)c1NC(=O)CC1C(=O)Nc2ccccc2S1=O` (stereo not drawn), for which the TGI in experiment [1] was greater than 100 µM; in [3] it was greater than 100 µM; in experiment [4], greater than 100 µM; in experiment [5], 46.3 µM; in experiment [6] it was greater than 100 µM; in [7], greater than 100 µM. Further, the TGI was 78.6 µM in experiment [8], greater than 100 µM in experiment [9] and greater than 100 µM in [10].
